System: Mongrel dogs
Experiment: Recovery of LV dP/dtmax in propranolol-induced heart failure state, anesthetized dogs (Test Example 1)
Format: in vivo
Details: iv; for ED100: Canis lupus familiaris, dose required for recovering the reduction in LV dP/dtmax to the value before propranolol administration, anesthetized mongrel dogs; for Blood pressure: change in BP at ED100, variation coefficient relative to the values of the stable (heart failure) state; for Blood pressure / Number of heart beat: dogs; for Number of heart beat: change in HR at ED100, variation coefficient relative to the values of the stable (heart failure) state
Description: Mongrel dogs of either sex, weighing 8 to 12 kg, were anesthetized with sodium pentobarbital (30 mg/kg i.v.). The left ventricular pressure (LVP) was measured with a sensor tip transducer and the maximum rate of rise of LVP (LV dP/dtmax) was calculated by an electronic differentiator. Polyethylene cannulae were inserted into the femoral artery to measure systemic blood pressure (BP) and into the femoral veins for administration or infusion of chemicals. BP was measured with a pressure transducer and heart rate (HR) by a cardiotachometer from the pressure pulse. The respective parameters were simultaneously recorded on a multichannel polygraph.
To induce and maintain heart failure state, propranolol was administered in a bolus injection (4 mg/kg i.v.) followed by an infusion (0.1 mg/kg/min i.v.). […] The dose of tested chemicals required for recovering the reduction in the LV dP/dtmax to the value before the propranolol administration was determined and defined as an ED100. The changes in BP and HR at ED100 were expressed by the variation coefficient relative to the values of the stable state.

Structure (SMILES)	ED100	Blood pressure	Number of heart beat
CCc1[nH]c(=O)c(C(C)=O)c2c1CC(c1ccncc1)CC2 (stereo not drawn) [Example 1, 4-acetyl-1-ethyl-7-(4-pyridyl)-5,6,7,8-tetrahydro-3(2H)isoquinolinone]	1 mg/kg	-32.1%	+17.3%
CCCCc1[nH]c(=O)c(C(C)=O)c2c1CC(c1ccncc1)CC2 (stereo not drawn) [Example 2, 4-acetyl-1-butyl-7-(4-pyridyl)-5,6,7,8-tetrahydro-3-(2H)isoquinolinone]	3 mg/kg	-11.5%	+18.3%
CC(=O)c1c2c(c(C3CC3)[nH]c1=O)CC(c1ccncc1)CC2 (stereo not drawn) [Example 3]	3 mg/kg	-27.8%	+30.6%
CCC(=O)c1c2c(c(C)[nH]c1=O)CC(c1ccncc1)CC2 (stereo not drawn) [Example 4, 1-methyl-4-propionyl-7-(4-pyridyl)-5,6,7,8-tetrahydro-3(2H)isoquinolinone]	3 mg/kg	-18.0%	+26.2%
CCCC(=O)c1c2c(c(C)[nH]c1=O)CC(c1ccncc1)CC2 (stereo not drawn) [Example 5, 4-butylyl-1-methyl-7-(4-pyridyl)5,6,7,8-tetrahydro-3(2H)isoquinolinone]	3 mg/kg	-20.2%	+23.7%
CCCCC(=O)c1c2c(c(C)[nH]c1=O)CC(c1ccncc1)CC2 (stereo not drawn) [Example 6, 1-methyl-7-(4-pyridyl)5,6,7,8-tetrahydro-4-valeryl-3(2H)isoquinolinone]	3 mg/kg	-10.5%	+19.8%
Cc1[nH]c(=O)c(C(=O)c2ccccc2)c2c1CC(c1ccncc1)CC2 (stereo not drawn) [Example 7, 4-benzoyl-1-methyl-7-(4-pyridyl)5,6,7,8-tetrahydro-3(2H)isoquinolinone]	3 mg/kg	-28.3%	+29.6%
CCc1c2c(c(C)[nH]c1=O)CC(c1ccncc1)CC2 (stereo not drawn) [Example 8, 4-ethyl-1-methyl-7-(4-pyridyl)-5,6,7,8-tetrahydro-3(2H)isoquinolinone]	0.03 mg/kg	-22.5%	+25.3%
CCCc1c2c(c(C)[nH]c1=O)CC(c1ccncc1)CC2 (stereo not drawn) [Example 9, 1-methyl-4-propyl-7-(4-pyridyl)-5,6,7,8-tetrahydro-3(2H)isoquinolinone]	0.3 mg/kg	-16.6%	+14.4%
Cc1[nH]c(=O)c(C=O)c2c1CC(c1ccncc1)CC2 (stereo not drawn) [Example 10, 4-formyl-1-methyl-7-(4-pyridyl)-5,6,7,8-tetrahydro-3(2H)isoquinolinone]	3 mg/kg	-17.5%	+24.2%
Cc1[nH]c(=O)c(C)c2c1CC(c1ccncc1)CC2 (stereo not drawn) [Example 11, 1,4-dimethyl-7-(4-pyridyl)-5,6,7,8-tetrahydro-3(2H)isoquinolinone]	0.3 mg/kg	-28.5%	+21.0%
Cc1[nH]c(=O)c(C(C)O)c2c1CC(c1ccncc1)CC2 (stereo not drawn) [Example 12, 4-(1-hydroxyethyl)-1-methyl-7-(4-pyridyl)-5,6,7,8-tetrahydro-3(2H)isoquinolinone]	3 mg/kg	-19.7%	+22.5%
Cc1[nH]c(=O)c(CO)c2c1CC(c1ccncc1)CC2 (stereo not drawn) [Example 13, 4-(hydroxymethyl)-1-methyl-7-(4-pyridyl)-5,6,7,8-tetrahydro-3(2H)isoquinolinone]	0.3 mg/kg	-2.6%	+20.0%
Cc1[nH]c(=O)c(C(C)(C)O)c2c1CC(c1ccncc1)CC2 (stereo not drawn) [Example 14, 4-(2-(2-hydroxypropyl))-1-methyl-7-(4-pyridy)-5,6,7,8-tetrahydro-3(2H)isoquinolinone]	0.1 mg/kg	-9.3%	+32.6%
C=C(C)c1c2c(c(C)[nH]c1=O)CC(c1ccncc1)CC2 (stereo not drawn) [Example 15, 4-isopropenyl-1-methyl-7-(4-pyridyl)-5,6,7,8-tetrahydro-3(2H)isoquinolinone]	0.03 mg/kg	-16.4%	+28.6%
Cc1[nH]c(=O)c(C(F)(F)C(F)(F)F)c2c1CC(c1ccncc1)CC2 (stereo not drawn) [Example 16, 1-methyl-4-pentafluoroethyl-7-(4-pyridyl)-5,6,7,8-tetrahydro-3(2H)isoquinolinone]	3 mg/kg	-15.9%	+29.1%
CCc1c2c(c(C)[nH]c1=O)CC(c1ccccn1)CC2 (stereo not drawn) [Example 17, 4-ethyl-1-methyl-7-(2-pyridyl)-5,6,7,8-tetrahydro-3(2H)isoquinolinone]	0.1 mg/kg	-2.1%	+15.0%
Cc1[nH]c(=O)c(C(C)(C)O)c2c1CC(c1ccccn1)CC2 (stereo not drawn) [Example 18, 4-(2-(2-hydroxypropyl))-1-methyl-7-(2-pyridyl)-5,6,7,8-teterahydro-3(2H)isoquinolinone]	0.3 mg/kg	-8.3%	+30.1%
C=C(C)c1c2c(c(C)[nH]c1=O)CC(c1ccccn1)CC2 (stereo not drawn) [Example 19, 4-isopropenyl-1-methyl-7-(2-pyridyl)-5,6,7,8-teterahydro-3(2H)isoquinolinon]	0.1 mg/kg	-15.9%	+27.6%
